Laboratory results published in patent US10544178B2, “Metal complex compound and preparing method and usage thereof” (National Changhua University of Education, priority 2018, dated 2020).

Legend:
[1] = tested on: PC-3 prostatic cancer cell
Procedure: (§1) Pharmacology Research: cytotoxicity research upon PC-3 prostatic cancer and DU145 breast cancer
(§2) Human cell HRMPC performing cell activity of PC-3 prostatic cancer and DU145 breast cancer is placed into PRMI1640 culture medium to be cultured under a temperature of 37° C. in a 5% CO2/95% air. The PRMI1640 culture medium contains 10% FBS and penicillin (100 U/ml)/streptomycin (100 U/ml).
(§3) Subsequently, the cell survivability is quantified through colorimetry (Sulforhodamine B Assay).

[2] = tested on: DU145 breast cancer cell
Procedure: as §1, §2, §3

Substance | IC50 [1] [µM] | IC50 [2] [µM]
para-methylisopropylphenylchloride-1-(para-diethylaminophenyl)-3-[(1-methyl-3-indazolyl)imino]-1-oxypropylruthenium [Embodiment 6] | > 30 | > 30
para-methylisopropylphenylchloride-2-(2-indazolyl)1-phenyl-1-oxyethylruthenium [Embodiment 7] |  | > 30
para-methylisopropylphenylchloride-2-[1-(2-naphthyl)azomethine]phenoxyruthenium [Embodiment 5] | 4.58 ± 0.32 | 14.2 ± 0.35
para-methylisopropylphenylchloride-2-[1-para-tolueneimino]phenoxyruthenium [Embodiment 4] | 3.01 ± 1.17 | 13.1 ± 0.95

More lines, in order of falling IC50 [2], values ahead:

IC50 [1] [µM] | IC50 [2] [µM] | Substance
5.68 ± 0.12 | 14.3 ± 0.28 | para-methylisopropylphenylchloride-1-carbonyl-3-[(2-methoxyl) n-phenyl]-1-phenyl-2-butyleneruthenium [Embodiment 2]
5.66 ± 0.2 | 9.31 ± 1.48 | para-methylisopropylphenylchloride-1-carbonyl-3-n-phenyl-1-phenyl-2-butyleneruthenium [Embodiment 1]
2.39 ± 0.13 | 5.37 ± 0.06 | para-methylisopropylphenylchloride-1-carbonyl-3-[(2,6-diisopropyl)n-phenyl]-1-phenyl-2-butyleneruthenium [Embodiment 3]
